Source: patent publication US4243672A, “5-Substituted 2-pyrroleglyoxylic acids, 5-substituted 2-pyrrolylglycines and derivatives thereof” (Pfizer Inc., priority 1978, dated 1981)
Structures can show the parent of a compound that is named as a salt.

Experiments:
[1] = test system: pyruvate dehydrogenase enzyme (PDH); experiment: Proportion of active pyruvate dehydrogenase (PDHa/PDHt) in hearts of fat-fed rats after dosing; format: in vivo, rat; settings: heart, after 1.5 hours
Procedure: Rats fed on a high fat diet as in the previous test, are treated either with placebo or with the compound of formula (I) or (II) by subcutaneous or intravenous injection or by oral administration. After 1.5 hours the rat hearts are removed and homogenized under conditions which minimize changes in the proportion of the pyruvate dehydrogenase enzyme (PDH) which is present in the active form, as described by Whitehouse and Randle [Biochem. J., 134, 651 (1973)]. The total amount of enzyme present (PDHt) and the amount which is present in the active form (PDHa) are assessed by a method similar to that described by Taylor et al. [J. Biol. Chem., 248, 73 (1973)]. The fat-feeding process is found to depress the ratio PDHa/PDHt from a normal value of about 0.7 to a value in the range from 0.05 to 0.2. Treatment of fat-fed rats with the compounds of formula (I) or (II) either parenterally or orally, increases this ratio in a dose dependent manner.
The increase in the PDHa/PDHt ratio affected by various of the compounds for the Examples at the dose level indicated is shown in the following Table: The compounds were administered by subcutaneous injection except where indicated by (0) where the compounds were administered orally.

[2] = test system: diaphragm tissue from fat-fed rats; experiment: Pyruvate oxidation by diaphragm tissue from fat-fed rats (14C-pyruvate into CO2) in vitro; format: cell-based; settings: Rattus norvegicus, stimulation of pyruvate oxidation, concentration 0.5 mmolar
Procedure: Diaphragm tissue is obtained from rats fed on a high fat diet similar to 'Diet B' described by Zaragoza and Felber [Horm, Metab. Res., 2, 323 (1970)]. Pyruvate oxidation by such tissue is assessed by measurement of the rate of incorporation of carbon-14 from carbon-14-labelled pyruvate into carbon dioxide in vitro, as described by Bringolf [Eur. J. Biochem., 26, 360 (1972)]. The rate of pyruvate oxidation is depressed by 50-75% compared with that by diaphragm tissue from rats fed on a normal diet. When the compounds of the invention are added to the medium, they are found to stimulate pyruvate oxidation by diaphragm tissue from fat-fed rats in a dose dependent manner.

[3] = test system: heart; experiment: Myocardial blood flow and metabolism in fasted, closed-chest, anaesthetized, electrically paced beagle dogs; format: in vivo; settings: 0.02 to 0.1 millimole/kg. intravenously
Procedure: The ability of compounds of formula (I) or (II) to reduce oxygen demand and affect the relative utilization of carbohydrate and lipid metabolites in the heart has been assessed by measuring the effect of the compounds on myocardial blood flow and metabolism in fasted, closed-chest, anaesthetized beagle dogs, with cardiac catherization to enable simultaneous sampling of coronary sinus and arterial blood to be carried out. Coronary sinus blood flow is measured by the hydrogen gas clearance technique described by Aukland et al. [Circulation Res., 14, 164 (1964)]. The heart is paced electrically at 155 beats/minute and recordings of hemodynamic parameters (blood pressure, left ventricular pressure and the first derivative of the latter) are made continuously. Control measurement of coronary blood flow are made and samples of blood taken at 40 minute intervals, both in an untreated animal and in the same animal dose with an infusion of isoprenaline (60 ng./kg./min.), which both stimulates cardiac contraction and increases plasma free fatty acid levels. The compound of formula (I) or (II) is then administered intravenously and measurements are made and samples taken again, 40 minutes and 90 minutes later. The blood samples from the artery and coronary sinus are analyzed for oxyhemoglobin, pyruvate and free fatty acid (FFA) content, differences between those of the arterial and coronary sinus blood, when multiplied by coronary blood flow, being a measure of oxygen consumption, pyruvate uptake and FFA uptake by the myocardium respectively.

[4] = 0.6 mMol/kg., administered orally (0)
[5] = 0.6 mMol/kg., subcutaneous injection
[6] = 0.3 mMol/kg., administered orally (0)
[7] = 1.2 mMol/kg., subcutaneous injection
[8] = 0.3 mMol/kg., subcutaneous injection

In the case of `NC(C(=O)O)c1ccc(CC2CC2)[nH]1` (racemic) [Example 59, DL-2-(5-Cyclopropylmethyl-2-pyrrolyl)glycine], the PDHa/PDHt ratio [1, 4] is reported as 0.21 and the activation at 500 µM [2] is reported as 29%.

`CCc1ccc(C(N)C(=O)O)[nH]1` (racemic) [Example 60, DL-2-(5-Ethyl-2-pyrrolyl)glycine] was tested, and the PDHa/PDHt ratio [1, 5] was 0.16 and the activation at 500 µM [2] was 59%.

`CCCCCc1ccc(C(N)C(=O)O)[nH]1` (racemic) [Example 61, DL-2-(5-n-Pentyl-2-pyrrolyl)glycine] was tested, and the PDHa/PDHt ratio [1, 4] was 0.13 and the activation at 500 µM [2] was 84%.

With `NC(=O)C(N)c1ccc(CC2CC2)[nH]1` (racemic) [Example 64, DL-2-(5-Cyclopropylmethyl-2-pyrrolyl)glycinamide] the PDHa/PDHt ratio [1, 5] was 0.27, the activation at 500 µM [2] was 87% and the “effect on myocardial blood flow or any of the hemodynamic parameters measured” value [3] was “no significant affect”. For the same compound, the myocardial glucose uptake [3] was “increased”, the “decrease of myocardial oxygen consumption” value ([3]; in the presence of isoprenaline) was “about 20%” and the “increase of myocardial pyruvate uptake” value ([3]; presence and absence of isoprenaline, for at least 40 minutes after dosing) was “at least 2 fold”.

Compound `CCOC(=O)C(=O)c1ccc(C)[nH]1` [Example 1, 5-Methyl-2-pyrrolylglyoxylic Acid Ethyl Ester] has an activation at 500 µM [2] of 32%.

`CCOC(=O)C(=O)c1ccc(C(C)(C)C)[nH]1` [Example 2] showed an activation at 500 µM [2] of 50%.

`CCCCc1ccc(C(=O)C(=O)OCC)[nH]1` [Example 6] gave a PDHa/PDHt ratio [1, 6] of 0.23.

`CCOC(=O)C(=O)c1ccc(CC(C)C)[nH]1` [Example 9] showed an activation at 500 µM [2] of 65%.

`CCOC(=O)C(=O)c1ccc(Cc2ccccc2)[nH]1` [Example 18] was tested, and the activation at 500 µM [2] was 19%.

`CCc1ccc(C(=O)C(=O)O)[nH]1` [Example 20, 5-Ethyl-2-Pyrrolylglyoxylic Acid] showed a PDHa/PDHt ratio [1, 7] of 0.85 and an activation at 500 µM [2] of 66%.

`O=C(O)C(=O)c1ccc(CC2CC2)[nH]1` [Example 21, 5-Cyclopropylmethyl-2-pyrrolylglyoxylic Acid Sodium Salt] gave a PDHa/PDHt ratio [1, 8] of 0.44, a PDHa/PDHt ratio [1, 5] of 0.71 and an activation at 500 µM [2] of 147%.

With `Cc1ccc(C(=O)C(=O)O)[nH]1` [Example 22] the PDHa/PDHt ratio [1, 7] was 0.84 and the activation at 500 µM [2] was 51%.

For `CCCc1ccc(C(=O)C(=O)O)[nH]1` [Example 23], the PDHa/PDHt ratio [1, 5] was 0.66, the PDHa/PDHt ratio [1, 7] was 0.82 and the activation at 500 µM [2] was 78%.

`CCCCc1ccc(C(=O)C(=O)O)[nH]1` [Example 24, 2-(5-n-butyl-2-pyrrolyl)glyoxylic acid] was tested, and the PDHa/PDHt ratio [1, 8] was 0.42 and the activation at 500 µM [2] was 140%.

For `CC(C)Cc1ccc(C(=O)C(=O)O)[nH]1` [Example 25], the PDHa/PDHt ratio [1, 5] was 0.45, the PDHa/PDHt ratio [1, 7] was 1.00 and the activation at 500 µM [2] was 59%.

`CC(C)(C)c1ccc(C(=O)C(=O)O)[nH]1` [Example 26] showed an activation at 500 µM [2] of 31%.

Compound `CCCCCc1ccc(C(=O)C(=O)O)[nH]1` [Example 27, 2-(5-n-amyl-2-pyrrolyl)glyoxylic acid] has a PDHa/PDHt ratio [1, 5] of 0.13 and an activation at 500 µM [2] of 157%.

`CC(C)(C)Cc1ccc(C(=O)C(=O)O)[nH]1` [Example 28] was tested, and the activation at 500 µM [2] was 88%.

For `CCCCCCc1ccc(C(=O)C(=O)O)[nH]1` [Example 29, 2-(5-n-hexyl-2-pyrrolyl)glyoxylic acid], the PDHa/PDHt ratio [1, 6] was 0.40 and the activation at 500 µM [2] was 78%.

With `CC(C)(C)CCc1ccc(C(=O)C(=O)O)[nH]1` [Example 30] the activation at 500 µM [2] was 44%.

Work on `O=C(O)C(=O)c1ccc(CCC2CCCCC2)[nH]1` [Example 31] yielded a PDHa/PDHt ratio [1, 6] of 0.20 and an activation at 500 µM [2] of 125%.

For `O=C(O)C(=O)c1ccc(Cc2ccccc2)[nH]1` [Example 32], the PDHa/PDHt ratio [1, 5] was 0.16, the PDHa/PDHt ratio [1, 7] was 0.83 and the activation at 500 µM [2] was 43%.

In the case of `O=C(O)C(=O)c1ccc(CCc2ccccc2)[nH]1` [Example 33], the PDHa/PDHt ratio [1, 8] is reported as 0.13 and the activation at 500 µM [2] is reported as 69%.

With `CSc1ccc(C(=O)C(=O)O)[nH]1` [Example 34] the PDHa/PDHt ratio [1, 7] was 0.42 and the activation at 500 µM [2] was 53%.

Compound `O=C(O)C(=O)c1ccc(CCC2C=CCC2)[nH]1` (centres unmarked) [Example 35] has a PDHa/PDHt ratio [1, 8] of 0.18 and an activation at 500 µM [2] of 209%.

For `O=C(O)C(=O)c1ccc(CC2CCCC2)[nH]1` [Example 36], the PDHa/PDHt ratio [1, 8] was 0.20 and the activation at 500 µM [2] was 154%.

Compound `O=C(O)C(=O)c1ccc(CC2CCCCC2)[nH]1` [Example 37] has a PDHa/PDHt ratio [1, 8] of 0.12 and an activation at 500 µM [2] of 124%.

In the case of `O=C(O)C(=O)c1ccc(CCC2CCCC2)[nH]1` [Example 38], the PDHa/PDHt ratio [1, 8] is reported as 0.25 and the activation at 500 µM [2] is reported as 80%.

`CCCSc1ccc(C(=O)C(=O)OCC)[nH]1` [Example 39, 5-n-Propylthio-2-pyrrolylglyoxylic Acid Ethyl Ester] was tested, and the activation at 500 µM [2] was 44%.

`CCCSc1ccc(C(=O)C(=O)O)[nH]1` [Example 40, 5-n-Propylthio-2-pyrrolylglyoxylic Acid] showed a PDHa/PDHt ratio [1, 8] of 0.27 and an activation at 500 µM [2] of 80%.
